Results from the supplement of paper PMC10307832.

Columns and labels:
Assay in all cases: relative viability (nuclei count vs DMSO), 5 days (fraction); higher = more cells survive
[1] = compound: CC1=CC=C(C=C1)C(=O)CN2C3=C(CCCC3)SC2=N [Pifithrin_alpha] + CS(=O)(=O)N1CCN(Cc2cc3nc(-c4cccc5[nH]ncc45)nc(N4CCOCC4)c3s2)CC1 [Pictilisib] (partner 1 µM)
In short: (§1)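 A single step with final 0.05% Triton X-100, 1% formaldehyde and 1 ug/ml Hoechst fixed the cells and stained nuclei 5 days after treatment. Lung cancer cell lines in 1536-well plates had been treated by pin tool the day after seeding with one drug alone or a fixed anchor-drug dose plus five library-drug doses (not always all listed) in √10 steps, and nuclei were counted on 4× images. Relative viability is the ratio of nuclei in treated wells to nuclei in vehicle wells, taken as the median of duplicate plates.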

Axitinib + Lapatinib = compound: CNC(=O)c1ccccc1Sc1ccc2c(/C=C/c3ccccn3)n[nH]c2c1 [Axitinib] + CS(=O)(=O)CCNCc1ccc(-c2ccc3ncnc(Nc4ccc(OCc5cccc(F)c5)c(Cl)c4)c3c2)o1 [Lapatinib] (partner 2 µM)
In short: as §1

Bemcentinib + Navitoclax = compound: Nc1nc(Nc2ccc3c(c2)CC[C@@H](N2CCCC2)CC3)nn1-c1cc2c(nn1)-c1ccccc1CCC2 [Bemcentinib] + CC1(C)CCC(c2ccc(Cl)cc2)=C(CN2CCN(c3ccc(C(=O)NS(=O)(=O)c4ccc(N[C@H](CCN5CCOCC5)CSc5ccccc5)c(S(=O)(=O)C(F)(F)F)c4)cc3)CC2)C1 [Navitoclax] (partner 0.5 µM)
In short: as §1

Bemcentinib + Linsitinib = compound: Nc1nc(Nc2ccc3c(c2)CC[C@@H](N2CCCC2)CC3)nn1-c1cc2c(nn1)-c1ccccc1CCC2 [Bemcentinib] + C[C@]1(O)C[C@@H](c2nc(-c3ccc4ccc(-c5ccccc5)nc4c3)c3c(N)nccn32)C1 [Linsitinib] (partner 1 µM)
In short: as §1

Cell Line	relative viability ([1]; first compound 1 µM)	relative viability ([1]; first compound 3.162 µM)	relative viability ([1]; first compound 10 µM)	relative viability ([1]; first compound 31.62 µM)	relative viability ([1]; first compound 100 µM)	relative viability (Axitinib + Lapatinib; first compound 0.005 µM)	relative viability (Axitinib + Lapatinib; first compound 0.01581 µM)	relative viability (Axitinib + Lapatinib; first compound 0.05 µM)	relative viability (Axitinib + Lapatinib; first compound 0.1581 µM)	relative viability (Axitinib + Lapatinib; first compound 0.5 µM)	relative viability (Bemcentinib + Navitoclax; first compound 0.1265 µM)	relative viability (Bemcentinib + Navitoclax; first compound 0.4 µM)	relative viability (Bemcentinib + Navitoclax; first compound 1.265 µM)	relative viability (Bemcentinib + Navitoclax; first compound 4 µM)	relative viability (Bemcentinib + Linsitinib; first compound 0.1265 µM)	relative viability (Bemcentinib + Linsitinib; first compound 0.4 µM)	relative viability (Bemcentinib + Linsitinib; first compound 1.265 µM)	relative viability (Bemcentinib + Linsitinib; first compound 4 µM)	relative viability (Bemcentinib + Navitoclax; first compound 0.04 µM)	relative viability (Bemcentinib + Linsitinib; first compound 0.04 µM)
A-427	0.722	0.629	0.666	0.522	0.657	1.1	1.01	1.08	1.06	1.06	0.946	0.826	0.909	1.07	1.14	1.07	1.14	1.14	–	–
LXF-289	0.818	0.694	0.726	0.498	0.687	0.899	0.831	0.921	0.869	0.888	0.914	0.979	1	0.961	1.06	0.972	0.991	0.995	0.955	0.955
NCI-H1355	0.195	0.363	0.311	0.257	0.337	0.976	1.08	0.994	1	0.893	0.943	1.08	0.941	0.976	0.98	0.848	0.903	0.99	0.947	0.858
NCI-H1437	0.371	0.406	0.44	0.249	0.222	0.851	0.743	0.91	0.733	0.926	1.16	1.23	1.13	1.15	1.14	1.16	1.12	1.18	1.09	1.03
HCC-366	0.105	0.106	0.136	0.136	0.112	0.99	0.961	1.09	1.03	1.16	1.23	1.11	1.07	1.03	0.921	1.14	0.604	0.881	1.11	0.612
NCI-H1299	0.797	0.827	0.919	0.452	0.762	0.956	0.993	0.96	0.97	1.02	1.04	1.05	1.04	1	1.04	0.985	1.07	1.09	1.02	1.01
201T	0.603	0.525	0.52	0.53	0.551	1.01	1.03	1.07	1.05	0.966	1.24	1.21	1.24	1.3	1.04	1.02	1.07	1.07	1.17	1.03
IA-LM	0.369	0.298	0.312	0.344	0.291	0.83	0.884	0.781	0.747	0.788	0.988	0.975	0.841	0.725	0.962	0.654	0.697	0.713	0.748	0.661
